In patent US5985589A, “Lipid kinase” (ICOS Corporation, priority 1999, dated 1999):

Test system: p110δ
Test: PI 3-kinase activity of immunoprecipitated FLAG-tagged p110δ (lipid kinase assay, TLC/autoradiography)
Type: biochemical, human
Conditions: at 100 nM wortmannin; p110δ immunoprecipitated from transfected COS cells
Protocol: The FLAG-tagged p110δ was expressed by transfecting pCDNA3:p110δFLAG into COS cells using DEAE dextran. Three days after transfection, expression of p110δ was determined by immunoprecipitations and western blotting using the M2 monoclonal antibody (Kodak Scientific Imaging Systems) according to the manufacturer's instructions. PI 3-kinase activity was determined as described [Hu et al., Mol. Cell. Biol., 13:7677-7688 (1993)].
To determine the PI 3-kinase activity of p110δ, 5μl of immunoprecipitated p110δ was mixed with 1 μl of PI/EGTA and incubated at room temperature for 10 minutes [PI/EGTA is 10 mg/ml PI(Sigma) in CHCl3, which has been dried under a vacuum, resuspended in 20 mg/ml DMSO in the presence or absence of various concentrations of the PI3 kinase inhibitor wortmannin and diluted 1:10 in 5 mM EGTA] and added to 1 μl 10× HM buffer (200 mM HEPES pH7.2, 50 mM MnCl2), 0.5 μl γ^32 PATP (10 mCi/ml-300 Ci/mmol), 1 μl 100 μM ATP, and 1.5 μl H2 O and incubated at 30° C. for 15 minutes. The reactions were terminated by addition of 100μl 1M HCl. Lipids were extracted with 200 μl CHCl3 /MeOH (1:1) by vortexing for 1 minute followed by centrifugation at 16,000×g for 2 minutes at room temperature. The lipids were further extracted with 80 μl 1M HCl/MeOH (1:1) by vortexing for 1 minutes, followed by centrifugation at 16,000×g for 2 minutes at room temperature. […]

For COC[C@H]1OC(=O)c2coc3c2[C@@]1(C)C1=C(C3=O)[C@@H]2CCC(=O)[C@@]2(C)C[C@H]1OC(C)=O [wortmannin], the “inhibition of PI 3-kinase activity (generation of phosphorylated lipids)” value was “approximately 50%”.
